Experiment: Determination of storage stability of crystalline material (HPLC analysis after storage)
Type: physicochemical
Method: Determination of Storage Stability of Crystalline Material of Formula I
A crystalline and an amorphous sample of (6R,7R)-7-[(Z)-2-(5-Amino-[1,2,4]thiadiazol-3yl)-2-hydroxyimino-acetylamino1-8-oxo-3-[(E)-(R)-1′-(5-methyl-2-oxo-1,3]dioxol-4-ylmethoxycarbonyl)-2-oxo-[1,3′]bipyrrolidinyl-3-ylidenemethyl]-8-oxo-5-thia-1-aza-bicyclo[4.2.0]oct-2-ene-2-carboxylic acid were stored at different temperatures for 24 hours, 28 days and for 3 months.

[1] = 3 months, 5° C. (as compared to −20° C.)
[2] = storage for 3 months, Temperature 5, Rel. Humidity Ca. 58%
[3] = storage for 3 months, Temperature 25, Rel. Humidity Ca. 58%
[4] = storage for 3 months, −20° C., Rel. Humidity Not defined
[5] = storage for 24 hours, Temperature 5, Rel. Humidity Ca. 58%
[6] = storage for 24 hours, Temperature 25, Rel. Humidity Ca. 58%
[7] = storage for 24 hours, Temperature 40, Rel. Humidity Ca. 75%
[8] = storage for 24 hours, Temperature 60, Rel. Humidity Ca. 75%
[9] = storage for 24 hours, −20° C., Rel. Humidity Not defined
[10] = storage for 28 days, Temperature 5, Rel. Humidity Ca. 58%
[11] = storage for 28 days, Temperature 25, Rel. Humidity Ca. 58%
[12] = storage for 28 days, −20° C., Rel. Humidity Not defined

Compound	decomposition on storage (in words) [1]	decomposition on storage (in words) (3 months, 25° C.)	decomposition on storage (in words) (28 days, 25° C.)	Area-% (HPLC) [2] [Area-%]	Area-% (HPLC) [3] [Area-%]	Area-% (HPLC) [4] [Area-%]	Area-% (HPLC) [5] [Area-%]	Area-% (HPLC) [6] [Area-%]	Area-% (HPLC) [7] [Area-%]	Area-% (HPLC) [8] [Area-%]	stability on storage (in words) (storage for 24 hours, whole temperature range of investigation)	Area-% (HPLC) [9] [Area-%]	Area-% (HPLC) [10] [Area-%]	Area-% (HPLC) [11] [Area-%]	Area-% (HPLC) [12] [Area-%]	decomposition on storage (in words) (28 days, 5° C.)	decomposition on storage (in words) (storage for 24 hours, temperatures above 5° C.)
Cc1oc(=O)oc1COC(=O)N1CC[C@@H](N2CC/C(=C\C3=C(C(=O)O)N4C(=O)[C@@H](NC(=O)/C(=N\O)c5nsc(N)n5)[C@H]4SC3)C2=O)C1.Cl [crystalline compound II, (6R,7R)-7-[(Z)-2-(5-Amino-[1,2,4]thiadiazol-3-yl) -2-hydroxyimino-acetylamino]-8-oxo-3-[(E)-(R)-1′-(5-methyl-2-oxo-[1,3]dioxol-4-ylmethoxycarbonyl)-2-oxo-[1,3′]bipyrrolidinyl-3-ylidenemethyl]-8-oxo5-thia-1-aza-bicyclo[4.2.0]oct-2-ene-2-carboxylic acid Hydrochloride Trihydrate]	no decomposition	slight decomposition	slight decomposition	93.9	93.4	94	95.7	95.75	95.45	95.57	very good stability	95.77	95.2	94.9	95.3	–	–
Cc1oc(=O)oc1COC(=O)N1CC[C@@H](N2CC/C(=C\C3=C(C(=O)O)N4C(=O)[C@@H](NC(=O)/C(=N\O)c5nsc(N)n5)[C@H]4SC3)C2=O)C1 [amorphous compound I, (6R,7R)-7-[(Z)-2-(5-Amino-[1,2,4]thiadiazol-3yl)-2-hydroxyimino-acetylamino1-8-oxo-3-[(E)-(R)-1′-(5-methyl-2-oxo-1,3]dioxol-4-ylmethoxycarbonyl)-2-oxo-[1,3′]bipyrrolidinyl-3-ylidenemethyl]-8-oxo-5-thia-1-aza-bicyclo[4.2.0]oct-2-ene-2-carboxylic acid]	slight decomposition	strongly decreased	–	96.9	91.4	97.6	99.05	98.85	98.25	96.67	–	99.04	98.1	96.4	98.6	decreased	decomposed significantly
